Data published in patent EP4810040A2, “INHIBITORS OF APOL1 AND METHODS OF USING SAME” (priority 2020, dated 2022).
Read-outs that look alike come from different tables or passages of the source.

Assays:
APOL1 G1 [1] = molecular target: T1, APOL1 G1 (Homo sapiens, UniProt O14791, I384M/S342G); assay: MultiTox-Fluor Multiplex Cytotoxicity Assay, tet-inducible APOL1 G1 T-REx-HEK293 cells; assay type: cell-based; set-up: expressed in transfected cells; host or cells: T-REx HEK293, clone G1 DC3.25 (pAAVS1-Puro-APOL1 G1); conditions: Multi-Tox Assay; for IC50: IP50 = IC50 for cell proliferation, APOL1 variant not given; for IC90: read-out: Multi-Tox Assay IC90; for Emax: APOL1 variant not stated in Table 46, read-out: Multi-Tox Assay Max Activity (%)
T1 sequence (O14791 28-398 S342G/I384M): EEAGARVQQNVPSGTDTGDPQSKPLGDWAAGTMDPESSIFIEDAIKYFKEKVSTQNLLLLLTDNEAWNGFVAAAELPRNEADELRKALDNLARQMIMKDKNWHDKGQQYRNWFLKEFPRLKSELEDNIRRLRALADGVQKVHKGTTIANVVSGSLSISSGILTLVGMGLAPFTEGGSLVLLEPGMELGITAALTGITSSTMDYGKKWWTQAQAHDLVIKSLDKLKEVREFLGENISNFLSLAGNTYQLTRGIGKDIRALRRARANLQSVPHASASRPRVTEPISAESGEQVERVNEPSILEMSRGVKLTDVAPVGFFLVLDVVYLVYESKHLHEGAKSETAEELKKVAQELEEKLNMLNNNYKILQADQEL
In short: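 T-REx-HEK293 cells carrying tet-inducible APOL1 G1 induced with 50 ng/mL tet alongside compound (top 10 µM, 10-point 3-fold, duplicate) for 24 h at 37 °C. MultiTox-Fluor dead/live protease fluorescence ratio read after 30 min; normalized to no-tet (100% viability) and tet-treated (0%) controls, then curve-fitted.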

APOL1 G1 [2] = molecular target: T1, APOL1 G1; assay: Trypanosoma brucei brucei Lysis Assay Using APOL1 Recombinant Protein (AlamarBlue viability readout); assay type: cell-based; conditions: IP50 = IC50 for cell proliferation; Trypanosome Assay
Text: Trypanosoma brucei brucei is a blood stream parasite to which human, gorillas, and baboons are immune due to the presence of the APOL1 protein in their HDL particles. The protein is uptaken by the parasite via the TbHpHb receptor located in its flagellar pocket and is bonded by the Hpr protein contained in the HDL particles which triggers the receptor endocytosis by the parasite.
Following endocytosis, the formed vesicle containing the HDL particle matures from early to late endosome, and subsequently to lysosome. The concomitant pH change in the lumen of the vesicle triggers the insertion of the APOL1 protein into the membrane of the late endosome/lysosome and hereby triggers lysosomal membrane permeabilization and as a further downstream event, trypanosome lysis. Trypanosoma brucei brucei is sensitive to lysis by all three APOL1 variants (G0, G1, and G2).
The Trypanosoma brucei brucei lysis assay is a lysis assay of the parasite using recombinant APOL1 protein variant followed by a fluorescent detection method of viability by the addition of AlamarBlue reagent to the assay well, a general metabolic redox indicator (AlamarBlue assay).
Briefly, the AlamarBlue active compound, resazurin, a blue, water soluble, non-toxic and cell permeable molecule, which can be followed by absorbance, is reduced by various metabolic pathways into resorufin, a red compound which can be followed by either absorbance or fluorescence. The assay allows the calculation of the percent viability (percent of living Trypanosomes remaining in each well) at the end of a lysis relative to the untreated condition by interpolation of fluorescent values (FLU) on a standard curve with a known amount of seeded trypanosome/well.
Trypanosoma brucei brucei (ATCC, Cat. No. PRA-382) • o Lister 427 VSG 221 bloodstream form.
Assay Ready Plates (ARPs) ∘ ARPs comes in two formats: • […] final top concentration with a 2.5 fold dilution down. • 5 mM final top concentration with a 3 fold dilution down. • ▪ Both have a 10 point Dose response. • ▪ 0.1% DMSO final in the Black Assay Plate. • ▪ Compounds are diluted 1000 fold in the Black Assay Plate. • ▪ Each plate is designed for 14 compounds in duplicate. ∘ In the final Black Assay Plate: […]

[3] = APOL1 variant (G0/G1/G2) of the HEK293 cells not given
[4] = APOL1 variant (G0/G1/G2) not stated in Table 46

Row | Compound | IC50 (APOL1 G1 [1]) [nM] | IC90 (APOL1 G1 [1]; [3]) [nM] | IC50 (APOL1 G1 [2]) [nM] | IC90 (APOL1 G1 [1]; [4]) [nM] | Emax (APOL1 G1 [1]) [%]
1 | 2'-ethyl-6'-(1-methyltriazol-4-yl)-2-(trifluoromethyl)spiro[4,5-dihydrothieno[2,3-c]pyran-7,4'-piperidine] [Compound 187] | < 50 | < 50 | 50 to 500 | – | –
2 | 2-chloro-2'-ethyl-6'-(1-methyltriazol-4-yl)spiro[4,5-dihydrothieno[2,3-c]pyran-7,4'-piperidine] [Compound 186] | < 50 | 50 to 500 | 50 to 500 | – | –
3 | Cn1cc([C@@H]2C[C@]3(C[C@H](C4CC4)N2)OCCc2cc(C(F)(F)F)sc23)nn1 [Compound 383, (2'R,6'S,7S)-2'-cyclopropyl-6'-(1-methyltriazol-4-yl)-2-(trifluoromethyl)spiro[4,5-dihydrothieno[2,3-c]pyran-7,4'-piperidine]] | – | – | – | < 50 | 100
4 | C[C@H]1C[C@@]2(C[C@@H](c3cn(C)nn3)N1)OCC(C)(O)c1cc(C(F)(F)F)sc12 (stereo partly drawn) [Compound 384, (2'S,6'S,7S)-2',4-dimethyl-6'-(1-methyltriazol-4-yl)-2-(trifluoromethyl)spiro[5H-thieno[2,3-c]pyran-7,4'-piperidine]-4-ol] | – | – | – | < 50 | 100
5 | [2H]C1([2H])O[C@@]2(C[C@@H](c3cn(C)nn3)N[C@@H](C)C2)c2sc(Cl)cc2[C@]1([2H])O [Compound 385, (2S,4S,4'S,6S)-2'-chloro-4',5',5'-trideuterio-2-methyl-6-(1-methyltriazol-4-yl)spiro[piperidine-4,7'-thieno[2,3-c]pyran]-4'-ol] | – | – | – | < 50 | 100
6 | [2H][13C]([2H])([2H])n1cc([C@@H]2[13CH2][C@]3(C[C@H](C)N2)OC[C@@H](O)c2cc(C(F)(F)F)sc23)nn1 [Compound 386, (2S,4S,4'S,6S)-2-methyl-6-(1-(methyl-^13C-d3)-1H-1,2,3-triazol-4-yl)-2'-(trifluoromethyl)-4',5'-dihydrospiro[piperidine-4,7'-thieno[2,3-c]pyran]-5-^13C-4'-ol] | – | – | – | < 50 | 100
7 | Cn1cc([C@@H]2C[C@]3(C[C@H](c4ccccc4)N2)OC[C@@H](O)c2cc(Cl)sc23)nn1 [Compound 387, (2'S,4S,6'R,7S)-2-chloro-2'-(1-methyltriazol-4-yl)-6'-phenyl-spiro[4,5-dihydrothieno[2,3-c]pyran-7,4'-piperidine]-4-ol] | – | – | – | > 500 | 94
8 | Cn1cc(C2CC3(CC(C(F)F)N2)OCCc2cc(Cl)sc23)nn1 (stereo not shown) [Compound 388, 2-chloro-2'-(difluoromethyl)-6'-(1-methyltriazol-4-yl)spiro[4,5-dihydrothieno[2,3-c]pyran-7,4'-piperidine]] | – | – | – | > 500 | 90
9 | Cn1cc(C2CC3(CC(C(F)F)N2)OCCc2cc(C(F)(F)F)sc23)nn1 (stereo not shown) [Compound 389, 2'-(difluoromethyl)-6'-(1-methyltriazol-4-yl)-2-(trifluoromethyl)spiro[4,5-dihydrothieno[2,3-c]pyran-7,4'-piperidine]] | – | – | – | > 500 | 99
10 | C[C@H]1C[C@@]2(C[C@@H](c3cn(C)nn3)N1)OC[C@@H](O)c1sc(C(F)(F)F)cc12 [Compound 390, (2'S,4S,6'S,7R)-2'-methyl-6'-(1-methyltriazol-4-yl)-2-(trifluoromethyl)spiro[6,7-dihydrothieno[3,2-c]pyran-4,4'-piperidine]-7-ol] | – | – | – | < 50 | 99
11 | (2S)-2-chloro-2'-methyl-6'-(1-methylpyrazol-4-yl)spiro[4,5-dihydrothieno[2,3-c]pyran-7,4'-piperidine]-4-ol [Compound 175] | < 50 | < 50 | < 50 | – | –
12 | (2S,6S)-2-chloro-2'-cyclopropyl-6'-methyl-spiro[4,5-dihydrothieno[2,3-c]pyran-7,4'-piperidine] [Compound 211] | < 50 | 50 to 500 | 50 to 500 | – | –
